We go through one compound from US20160030416A1, “METHODS OF TREATING B2-BRADYKININ RECEPTOR MEDIATED ANGIOEDEMA” (SHIRE HUMAN GENETIC THERAPIES, INC., priority 2013, published 2016).

The assay concerns BK-induced human umbilical vein contractions. The assay can be described thus: cells. The protocol: The inhibition effect of CFMQ on bradykinin induced […] was examined in an ex vivo functional assay of human umbilical vein contraction, which is considered a gold standard for bradykinin activity measurements. […] Firazyr®). Following a 30 minute incubation, BK-induced vein contractions were initiated in a cumulative manner (final concentration of 10 μM), followed by maximal calibration contraction induction by 10 μM serotonin. The tension increase for each dose response was calculated in relation to the (maximal) response towards serotonin, graphed as a dose-response curve and used to calculate an effective concentration at 50% (EC50) value (FIG. 6)

SMILES strings stand for the structures.

As usually defined, the EC50 is the concentration that produces a half-maximal response. `NC(N)=NCCC[C@@H](N)C(=O)N[C@@H](CCCN=C(N)N)C(=O)N1CCC[C@H]1C(=O)N1C[C@H](O)C[C@H]1C(=O)NCC(=O)N[C@@H](Cc1cccs1)C(=O)N[C@@H](CO)C(=O)N1Cc2ccccc2C[C@@H]1C(=O)N1[C@H](C(=O)N[C@@H](CCCN=C(N)N)C(=O)O)C[C@@H]2CCCC[C@@H]21` [Firazyr® (icatibant), icatibant, reference compound] displayed an EC50 of 2.5 nM.
